Laboratory results taken from patent publication US9833497B2, “Human originated EGF domain proteins and use of the same” (CHENGDU SOURCEBIO LIMITED-LIABILITY COMPANY, priority 2013, dated 2017).

Experiments:
Assay type in all cases: cell-based
Moraxella catarrhalis = assay: MIC against Gram-negative bacteria: Moraxella catarrhalis; details: 5×10^5 CFU/mL
Method in brief: (§1)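 Broth microdilution, LB medium, final inoculum 5×10^5 CFU/mL from McFarland 0.5 cultures. Recombinant human EGF domain proteins tested in two-fold steps, n=3. MIC: lowest concentration, no growth.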

Klebsiella pneumonia = assay: MIC against Gram-negative bacteria: Klebsiella pneumonia; details: 5×10^5 CFU/mL
Method in brief: as §1

E. coli DH5α = assay: Antibacterial activity: MIC and growth curve against E. coli DH5α in 96-well plate; details: minimal inhibitory concentration against E. coli DH5α; 96-well plate, 5×10^5 CFU/mL, 37° C., judged after 8 h
Method in brief: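 MIC taken as lowest protein level with no bacterial growth, tracked by A600 every 30 min during 37 °C, 175 rpm culture. Two-fold protein series 50-12.5 μg/mL final, triplicate wells, against 5×10^5 CFU/mL of LB-washed mid-log cells.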

Pseudomonas aeruginosa = assay: MIC against Gram-negative bacteria: Pseudomonas aeruginosa; details: 5×10^5 CFU/mL
Method in brief: as §1

Proteus vulgaris = assay: MIC against Gram-negative bacteria: Proteus vulgaris; details: 5×10^5 CFU/mL
Method in brief: as §1

Aeromonas hydrophila = assay: MIC against Gram-negative bacteria: Aeromonas hydrophila; details: 5×10^5 CFU/mL
Method in brief: as §1

E. coli BL21 = assay: MIC against Gram-negative bacteria: E. coli BL21; details: 5×10^5 CFU/mL
Method in brief: as §1

Serratia marcescens = assay: MIC against Gram-negative bacteria: Serratia marcescens; details: 5×10^5 CFU/mL
Method in brief: as §1

Citrobacter diversus = assay: MIC against Gram-negative bacteria: Citrobacter diversus; details: 5×10^5 CFU/mL
Method in brief: as §1

Enterobacter cloacae = assay: MIC against Gram-negative bacteria: Enterobacter cloacae; details: 5×10^5 CFU/mL
Method in brief: as §1

Proteus mirabilis = assay: MIC against Gram-negative bacteria: Proteus mirabilis; details: 5×10^5 CFU/mL
Method in brief: as §1

[1] = E. coli BL21, 10 h cultivation at 37° C.
[2] = 10 h cultivation at 37° C., two-fold serial dilution

Row | Substance | MIC (μg/mL) M. catarrhalis (Moraxella catarrhalis; 10 h cultivation at 37° C.) [µg/mL] | MIC (μg/mL) K. pneumonia (Klebsiella pneumonia; 10 h cultivation at 37° C.) [µg/mL] | MIC (E. coli DH5α) [µg/mL] | MIC (μg/mL) P. aeruginosa (Pseudomonas aeruginosa; 10 h cultivation at 37° C.) [µg/mL] | MIC (μg/mL) P. vulgaris (Proteus vulgaris; 10 h cultivation at 37° C.) [µg/mL] | MIC (μg/mL) A. hydrophila (Aeromonas hydrophila; 10 h cultivation at 37° C.) [µg/mL] | MIC (μg/mL) E. coli BL21 (E. coli BL21; [1]) [µg/mL] | MIC (μg/mL) S. marcescens (Serratia marcescens; 10 h cultivation at 37° C.) [µg/mL] | MIC (μg/mL) C. diversus (Citrobacter diversus; 10 h cultivation at 37° C.) [µg/mL] | MIC (μg/mL) E. cloacae (Enterobacter cloacae; 10 h cultivation at 37° C.) [µg/mL] | MIC M. catarrhalis (Moraxella catarrhalis; [2]) [µg/mL] | MIC K. pneumonia (Klebsiella pneumonia; [2]) [µg/mL] | MIC P. aeruginosa (Pseudomonas aeruginosa; [2]) [µg/mL] | MIC P. vulgaris (Proteus vulgaris; [2]) [µg/mL] | MIC A. hydrophila (Aeromonas hydrophila; [2]) [µg/mL] | MIC E. coli BL21 (E. coli BL21; [2]) [µg/mL] | MIC S. marcescens (Serratia marcescens; [2]) [µg/mL] | MIC C. diversus (Citrobacter diversus; [2]) [µg/mL] | MIC E. cloacae (Enterobacter cloacae; [2]) [µg/mL] | MIC P. mirabilis (Proteus mirabilis; [2]) [µg/mL] | other results
1 | PRT151 (GCKYLSDINITRYNINCRENRACNELFHCQCDPGYAPPDCE; listed as Homo sapiens) | 12.5 | 50 | 12.5 | 12.5 | 50 | 50 | 50 | 12.5 | 25 | 12.5 | – | – | – | – | – | – | – | – | – | – | MIC (μg/mL) P. mirabilis (Proteus mirabilis; 10 h cultivation at 37° C.): 25 µg/mL
2 | PRT1084 (HLVKCAEKEKTFCVNGGECFMVKDLSNPSRYLCKCQPGFTGARCT; listed as Homo sapiens) | – | – | 50 | – | – | – | – | – | – | – | 25 | 50 | 50 | 25 | 12.5 | 12.5 | 12.5 | 12.5 | 50 | 12.5 | –
3 | PRT1100 (DIDECASDPCVNGGLCQDLLNKFQCLCDVAFAGERCE; listed as Homo sapiens) | – | – | 12.5 | – | – | – | – | – | – | – | 12.5 | 25 | 100 | 25 | 100 | 25 | 12.5 | 12.5 | 12.5 | 12.5 | –
4 | PRT1481 (PVNLCKPSPCMNEGSCVLQNGSYRCKCRDGWEGPHCE; listed as Homo sapiens) | – | – | 12.5 | – | – | – | – | – | – | – | – | – | – | – | – | – | – | – | – | – | MIC against M. catarrhalis (Moraxella catarrhalis; Moraxella catarrhalis, 10 h cultivation at 37° C.): 50 µg/mL; MIC against K. pneumonia (Klebsiella pneumonia; Klebsiella pneumonia, 10 h cultivation at 37° C.): 12.5 µg/mL; MIC against P. aeruginosa (Pseudomonas aeruginosa; Pseudomonas aeruginosa, 10 h cultivation at 37° C.): 50 µg/mL; MIC against P. vulgaris (Proteus vulgaris; Proteus vulgaris, 10 h cultivation at 37° C.): 50 µg/mL; MIC against A. hydrophila (Aeromonas hydrophila; Aeromonas hydrophila, 10 h cultivation at 37° C.): 25 µg/mL; MIC against E. coli BL21 (E. coli BL21; [1]): 25 µg/mL; MIC against S. marcescens (Serratia marcescens; Serratia marcescens, 10 h cultivation at 37° C.): 25 µg/mL; MIC against C. diversus (Citrobacter diversus; Citrobacter diversus, 10 h cultivation at 37° C.): 12.5 µg/mL; MIC against E. cloacae (Enterobacter cloacae; Enterobacter cloacae, 10 h cultivation at 37° C.): 50 µg/mL; MIC against P. mirabilis (Proteus mirabilis; Proteus mirabilis, 10 h cultivation at 37° C.): 12.5 µg/mL
5 | PRT741 (SAHPCARDNGGCSHICIAKGDGTPRCSCPVHLVLLQNLLTCG; listed as Homo sapiens) | – | – | 12.5 | – | – | – | – | – | – | – | – | – | – | – | – | – | – | – | – | – | MIC M. catarrhalis (Moraxella catarrhalis; 96-well plate, 37° C., 10 h): 12.5 µg/mL; MIC K. pneumonia (Klebsiella pneumonia; 96-well plate, 37° C., 10 h): 25 µg/mL; MIC P. aeruginosa (Pseudomonas aeruginosa; 96-well plate, 37° C., 10 h): 12.5 µg/mL; MIC P. vulgaris (Proteus vulgaris; 96-well plate, 37° C., 10 h): 25 µg/mL; MIC A. hydrophila (Aeromonas hydrophila; 96-well plate, 37° C., 10 h): 12.5 µg/mL; MIC E. coli BL21 (E. coli BL21; 96-well plate, 37° C., 10 h): 50 µg/mL; MIC S. marcescens (Serratia marcescens; 96-well plate, 37° C., 10 h): 12.5 µg/mL; MIC C. diversus (Citrobacter diversus; 96-well plate, 37° C., 10 h): 50 µg/mL; MIC E. cloacae (Enterobacter cloacae; 96-well plate, 37° C., 10 h): 50 µg/mL; MIC P. mirabilis (Proteus mirabilis; 96-well plate, 37° C., 10 h): 50 µg/mL
6 | PRT697 (DVDECAQEPPPCGPGRCDNTAGSFHCACPAGFRSRGPGAPCQ; listed as Homo sapiens) | – | – | 25 | – | – | – | – | – | – | – | – | – | – | – | – | – | – | – | – | – | MIC M. catarrhalis (Moraxella catarrhalis; 96-well plate, 37° C., 10 h): 50 µg/mL; MIC K. pneumonia (Klebsiella pneumonia; 96-well plate, 37° C., 10 h): 12.5 µg/mL; MIC P. aeruginosa (Pseudomonas aeruginosa; 96-well plate, 37° C., 10 h): 50 µg/mL; MIC P. vulgaris (Proteus vulgaris; 96-well plate, 37° C., 10 h): 25 µg/mL; MIC A. hydrophila (Aeromonas hydrophila; 96-well plate, 37° C., 10 h): 25 µg/mL; MIC E. coli BL21 (E. coli BL21; 96-well plate, 37° C., 10 h): 25 µg/mL; MIC S. marcescens (Serratia marcescens; 96-well plate, 37° C., 10 h): 25 µg/mL; MIC C. diversus (Citrobacter diversus; 96-well plate, 37° C., 10 h): 12.5 µg/mL; MIC E. cloacae (Enterobacter cloacae; 96-well plate, 37° C., 10 h): 50 µg/mL; MIC P. mirabilis (Proteus mirabilis; 96-well plate, 37° C., 10 h): 12.5 µg/mL
7 | PRT1045 (HGPGCQEHCLCLHGGVCQATSGLCQCAPGYTGPHCA; listed as Homo sapiens) | – | – | 25 | – | – | – | – | – | – | – | 50 | 50 | 25 | 50 | 50 | 50 | 50 | 50 | 12.5 | 12.5 | –
8 | PRT844 (CRCNRHSECAGVGARDHCLLCRNHTKGSHCEQCLPLFVGSAVGGGTCRP; listed as Homo sapiens) | 25 | 12.5 | 12.5 | 50 | 12.5 | 12.5 | 25 | 25 | 50 | 50 | – | – | – | – | – | – | – | – | – | – | MIC (μg/mL) P. mirabilis (Proteus mirabilis; 10 h cultivation at 37° C.): 12.5 µg/mL
9 | PRT1133 (KAGPCEQAGSPCRNGGQCQDDQGFALNFTCRCLVGFVGARCE; listed as Homo sapiens) | – | – | 12.5 | – | – | – | – | – | – | – | 25 | 12.5 | 12.5 | 25 | 25 | 12.5 | 12.5 | 12.5 | 25 | 12.5 | –
10 | PRT750 (DIDECQVAPGEAPTCDHHCHNHLGGFYCSCRAGYVLHRNKRTCS; listed as Homo sapiens) | 12.5 | 25 | 25 | 50 | 12.5 | 25 | 12.5 | 50 | 50 | 12.5 | – | – | – | – | – | – | – | – | – | – | MIC (μg/mL) P. mirabilis (Proteus mirabilis; 10 h cultivation at 37° C.): 50 µg/mL
